The numbers were not newly measured in patent publication US11325978B2, “Compositions and methods for treating beta-globinopathies” (priority 2018, dated 2022), which cites them from elsewhere.

The series relates to RIOK3. As to conditions: collection of 72 inhibitors against 456 human kinases (Davis et al. 2011).

As for `COc1cc(Nc2c(C#N)cnc3cc(OCCCN4CCN(C)CC4)c(OC)cc23)c(Cl)cc1Cl` [bosutinib, Bosutinib], the “inhibition of RIOK3 kinase activity” value was “inhibit RIOK3 kinase activity”.
